# Measurements: ChEMBL document CHEMBL5518165, “M335, a novel small-molecule STING agonist activates the immune response and exerts antitumor effects” (Eur J Med Chem, 2024)
# Activity calls are given as the source filed them. The calls are words filed in the database; no cut-off is given here.
# Key:
# [1] = Toxicity in […] mouse allografted with mouse CT26 cells assessed as change in body weight at 5 to 20 mg/kg, ip administered every 2 days; type: organism-based; settings: in vivo, 48 h, dose 5-20 mg/kg
# [2] = biological target: Stimulator of interferon genes protein (Homo sapiens) (UniProt Q86WV6); test: Agonist activity at STING in human THP-1 cells at 50 uM; type: cell-based; settings: filed as agonist
# Human alphaherpesvirus 1 [3] = test: Antiviral activity against HSV-1-GFP infected in human THP-1 cells assessed as reduction in viral infection pre-infected with virus for 24 hrs followed by compound addition and measured after 6 hrs by flow cytometry analysis; type: functional, organism-based; settings: dose 10-30 µM
# [4] = biological target: Stimulator of interferon genes protein (Homo sapiens) (UniProt Q86WV6); test: Binding affinity to human STING CTD assessed as change in protein denaturation temperature at 10 to 50 uM by thermal shift assay; settings: filed as agonist, dose 10-50 µM
# CT26 [5] = test: Antitumor activity against mouse CT26 cells […] mouse assessed as augmentation of CD3+ T cells in spleen at 10 mg/kg, ip administered every 2 days (reference value: 13.9%); type: functional
# Human alphaherpesvirus 1 [6] = test: Antiviral activity against HSV-1-GFP infected in human THP-1 cells assessed as reduction in viral infection at 10 to 30 uM pre-infected with virus for 48 hrs followed by compound addition and measured after 6 hrs by flow cytometry analysis; type: functional, organism-based; settings: dose 10-30 µM
# MC-38 [7] = test: Antitumor activity against mouse MC38 cells allografted in C57/BL6 mouse assessed as increase in CD8+ T cell numbers in spleen at 300 ug, IT administered every 2 days by immunohistochemical staining based analysis; type: functional; settings: dose 300.0 µg
# MC-38 [8] = test: Antitumor activity against mouse MC38 cells allografted in C57/BL6 mouse assessed as increase in CD3+ T cells in tumor tissue at 300 ug, IT administered every 2 days by flow cytometry analysis; type: functional, cell-based; settings: dose 300.0 µg
# THP-1 [9] = test: Upregulation of ISG15 mRNA level in STING-knockout human THP-1 cells at 20 uM measured for 4 hrs by qPCR analysis; type: functional, cell-based
# MC-38 [10] = test: Antitumor activity against mouse MC38 cells allografted in C57/BL6 mouse assessed as increase in CD3+ T cells in spleen at 300 ug, IT administered every 2 days by flow cytometry analysis; type: functional, cell-based; settings: dose 300.0 µg
# THP-1 [11] = test: Upregulation of CXCL10 mRNA level in STING-knockout human THP-1 cells at 20 uM measured for 4 hrs by qPCR analysis; type: functional, cell-based
# B16-F10 = test: Antitumor activity against mouse B16-F10 cells allografted in C57/BL6 mouse assessed as reduction in tumor growth at 300 ug, IT administered every 2 days; type: functional, cell-based; settings: dose 300.0 µg
# [12] = biological target: Stimulator of interferon genes protein (Homo sapiens) (UniProt Q86WV6); test: Agonist activity at STING in human THP-1 cells assessed as increase in STING oligomerization by Western blotting analysis; type: cell-based; settings: filed as agonist, dose 5-40 µM
# THP-1 [13] = test: Upregulation of IL6 mRNA level in STING-knockout human THP-1 cells at 20 uM measured for 4 hrs by qPCR analysis; type: functional, cell-based
# [14] = biological target: Stimulator of interferon genes protein (Homo sapiens) (UniProt Q86WV6); test: Agonist activity at STING in human THP-1 cells assessed as upregulation of interferon stimulated genes at 20 uM by RNA sequencing analysis; type: cell-based; settings: filed as agonist
# [15] = biological target: Stimulator of interferon genes protein (Homo sapiens) (UniProt Q86WV6); test: Binding affinity to human STING CTD assessed as decrease in protein stability by Western blotting analysis; settings: filed as agonist
# MC-38 [16] = test: Antitumor activity against mouse MC38 cells allografted in C57/BL6 mouse assessed as increase in CD45+ T cells in tumor tissue at 300 ug, IT administered every 2 days by flow cytometry analysis; type: functional, cell-based; settings: dose 300.0 µg
# [17] = biological target: Stimulator of interferon genes protein (Homo sapiens) (UniProt Q86WV6); test: Agonist activity at STING in human THP-1 cells assessed as increase in LC3-II protein level incubated for 4 hrs by Western blotting analysis; type: cell-based; settings: filed as agonist, dose 5-40 µM
# [18] = biological target: T1, Stimulator of interferon genes protein (Mus musculus) (UniProt Q3TBT3); test: Agonist activity at STING in MEF cells assessed as nuclear transposition of phosphorylated IRF3 incubated for 1 hr by laser scanning confocal microscope analysis; type: cell-based; settings: filed as agonist
# T1 sequence (whole entry): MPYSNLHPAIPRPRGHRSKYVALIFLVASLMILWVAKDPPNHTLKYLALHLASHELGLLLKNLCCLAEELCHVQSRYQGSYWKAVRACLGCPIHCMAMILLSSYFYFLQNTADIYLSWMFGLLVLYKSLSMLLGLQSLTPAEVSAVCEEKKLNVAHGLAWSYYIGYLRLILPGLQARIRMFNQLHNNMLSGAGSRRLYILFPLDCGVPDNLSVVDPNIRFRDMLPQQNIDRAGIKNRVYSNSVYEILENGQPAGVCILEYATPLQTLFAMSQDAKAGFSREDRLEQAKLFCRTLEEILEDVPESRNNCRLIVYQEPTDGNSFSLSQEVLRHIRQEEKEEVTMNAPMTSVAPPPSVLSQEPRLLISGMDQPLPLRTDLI
# CT26 [19] = test: Antitumor activity against mouse CT26 cells […] mouse assessed as augmentation of CD8+ T cells in spleen at 5 mg/kg, ip administered every 2 days (reference value: 6.99%); type: functional
# MC-38 [20] = test: Antitumor activity against mouse MC38 cells allografted in C57/BL6 mouse assessed as tumor growth inhibition at 300 ug, IT administered every 2 days relative to control; type: functional; settings: dose 300 µg
# [21] = Toxicity in […] mouse allografted with mouse CT26 cells assessed as change in body weight at 300 ug, IT administered every 2 days; type: cell-based; settings: in vivo, other, 48 h, dose 300 µg
# MC-38 [22] = test: Antitumor activity against mouse MC38 cells allografted in C57/BL6 mouse assessed as increase in CD8+ T cells in spleen at 300 ug, IT administered every 2 days by flow cytometry analysis (reference value: 8.80%); type: functional; settings: dose 300 µg
# Human alphaherpesvirus 1 [23] = test: Antiviral activity against HSV-1-GFP infected in human STING-deficient WT HeLa cells assessed as reduction in viral infection by fluorescent microscopy analysis; type: functional, organism-based
# CT26 [24] = test: Antitumor activity against mouse CT26 cells […] mouse assessed as augmentation of CD45+ cells in spleen at 10 mg/kg, ip administered every 2 days (reference value: 35.1%); type: functional
# MC-38 [25] = test: Antitumor activity against mouse MC38 cells allografted in C57/BL6 mouse assessed as increase in CD45+ T cells in spleen at 300 ug, IT administered every 2 days by flow cytometry analysis; type: functional, cell-based; settings: dose 300.0 µg
# CT26 [26] = test: Antitumor activity against mouse CT26 cells allografted in ip dosed […] mouse assessed as reduction in tumor growth administered every 2 days; type: functional, organism-based; settings: dose 5-20 mg/kg
# [27] = biological target: Stimulator of interferon genes protein (Homo sapiens) (UniProt Q86WV6); test: Agonist activity at STING in human THP-1 cells assessed as increase in TBK1 phosphorylation at 20 uM measured for 4 hrs by Western blotting analysis; type: cell-based; settings: filed as agonist
# CT26 [28] = test: Antitumor activity against mouse CT26 cells […] mouse assessed as augmentation of CD3+ T cells in spleen at 5 mg/kg, ip administered every 2 days (reference value: 13.9%); type: functional
# THP-1 [29] = test: Upregulation of IRF3 phosphorylation in STING-knockout human THP-1 cells at 20 uM measured for 4 hrs by Western blotting analysis; type: functional, cell-based
# [30] = biological target: Stimulator of interferon genes protein (Homo sapiens) (UniProt Q86WV6); test: Agonist activity at STING in human THP-1 cells assessed as increase in IRF3 phosphorylation incubated for 4 hrs by Western blotting analysis; type: cell-based; settings: filed as agonist, dose 5-40 µM
# Stimulator of interferon genes protein (Homo sapiens), sequence (Q86WV6 whole entry): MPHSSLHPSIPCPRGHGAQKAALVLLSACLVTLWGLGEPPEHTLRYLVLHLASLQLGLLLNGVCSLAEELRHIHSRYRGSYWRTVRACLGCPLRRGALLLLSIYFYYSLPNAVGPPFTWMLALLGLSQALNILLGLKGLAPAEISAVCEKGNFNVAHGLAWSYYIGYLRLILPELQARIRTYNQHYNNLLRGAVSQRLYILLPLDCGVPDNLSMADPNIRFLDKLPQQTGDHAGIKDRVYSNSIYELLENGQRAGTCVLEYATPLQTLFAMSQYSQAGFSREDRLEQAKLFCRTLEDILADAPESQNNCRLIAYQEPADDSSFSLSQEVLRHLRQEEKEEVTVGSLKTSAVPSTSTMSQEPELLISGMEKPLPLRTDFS
smiles,measurement,setting,value
CC(NCCC(c1ccccc1)c1ccccc1)c1ccccc1 (stereo unspecified) [FENDILINE],Activity,[1],Non-Toxic
same,Activity,[2],Active
same,Activity,Human alphaherpesvirus 1 [3],Dose-Dependent Effect
same,Activity,[4],Active
same,Activity,CT26 [5],28.6%
same,Activity,Human alphaherpesvirus 1 [6],Active
same,Activity,MC-38 [7],Active
same,Activity,MC-38 [8],Active
same,Activity,THP-1 [9],inactive
same,Activity,MC-38 [10],Active
same,Activity,THP-1 [11],inactive
same,Activity,B16-F10,Active
same,Activity,[12],Dose-Dependent Effect
same,Activity,THP-1 [13],inactive
same,Activity,[14],Active
same,Activity,[15],Active
same,Activity,MC-38 [16],Active
same,Activity,[17],Dose-Dependent Effect
same,Activity,[18],Active
same,Activity,CT26 [19],12.7%
same,TGI,MC-38 [20],82%
same,Activity,[21],Non-Toxic
same,Activity,MC-38 [22],14.3%
same,Activity,Human alphaherpesvirus 1 [23],Active
same,Activity,CT26 [24],56.3%
same,Activity,MC-38 [25],Active
same,Activity,CT26 [26],Dose-Dependent Effect
same,Activity,[27],Active
same,Activity,CT26 [28],20.3%
same,Activity,THP-1 [29],inactive
same,Activity,[30],Dose-Dependent Effect
